Data: US20250262201A1, “COMPOUNDS AND METHODS USEFUL FOR STABILIZING PHENYLALANINE HYDROXYLASE MUTATIONS” (Agios Pharmaceuticals, Inc., priority 2022, published 2025)

Molecular target: T1, human PAH with the R408W mutation (Homo sapiens, UniProt P00439, R408W)
T1 construct: expressed in transfected cells
T1 sequence (P00439 1-452 R408W): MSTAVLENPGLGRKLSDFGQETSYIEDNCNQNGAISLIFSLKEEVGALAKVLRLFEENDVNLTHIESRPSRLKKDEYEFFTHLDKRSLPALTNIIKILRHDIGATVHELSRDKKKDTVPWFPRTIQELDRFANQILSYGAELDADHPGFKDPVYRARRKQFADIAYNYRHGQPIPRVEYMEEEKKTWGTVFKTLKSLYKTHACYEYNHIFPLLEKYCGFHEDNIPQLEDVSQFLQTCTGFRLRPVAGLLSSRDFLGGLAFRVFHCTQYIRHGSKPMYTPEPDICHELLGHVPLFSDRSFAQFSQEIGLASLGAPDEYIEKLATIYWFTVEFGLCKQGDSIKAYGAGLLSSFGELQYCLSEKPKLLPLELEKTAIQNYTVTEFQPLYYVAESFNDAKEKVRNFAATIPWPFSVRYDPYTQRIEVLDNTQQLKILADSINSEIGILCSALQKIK
Test: Cell Based Phenylalanine Flux Assay
Parameters: scale not given here
Details: A375 R408W cells, 24 hrs with compound, then 20 μM sepiapterin and 800 μM 13C9,15N-Phenylalanine for 4 hours; 13C-Tyrosine by LC-MS; average where tested multiple times

AC50 | SMILES
E, E | O=C(c1oc(-c2ccncc2)nc1C(F)F)N1CCc2[nH]cnc2C1c1ncc2ccccc2n1 (stereo not drawn)

Same assay, conditions: A375 R408W cells, 24 hrs with compound, then 20 μM sepiapterin and 800 μM 13C9,15N-Phenylalanine for 4 hours; 13C-Tyrosine by LC-MS; average where tested multiple times; read-out: AC50

AC50 [µM] | SMILES
> 5 | Cc1nc(C2(O)CC2)oc1C(=O)N1CCc2[nH]cnc2C1c1ccc2ccccc2n1 (stereo not drawn)
1 to 5 | CC1CN(C(=O)c2nnc(N(C)C)o2)C(c2cc3ccccc3cn2)c2nc[nH]c21 (stereo not drawn)
> 5 | COCCc1ccc2c(C(=O)N3CCc4[nH]cnc4C3c3ccc4ccccc4n3)cnn2c1 (stereo not drawn)
1 to 5 | O=C(c1nnc(N2CCOCC2)o1)N1CCc2[nH]cnc2C1c1ccc2ccccc2n1 (stereo not drawn)
1 to 5 | Cn1cc(-c2ncc(C(=O)N3CCc4[nH]cnc4C3c3ncc4ccccc4n3)o2)cn1 (stereo not drawn)
1 to 5 | COCc1ccc2c(C(=O)N3CC(C)c4[nH]cnc4C3c3cc4ccccc4cn3)cnn2c1 (stereo not drawn)
1 to 5 | O=C(c1nnc(-c2ccn(CC(F)F)n2)o1)N1CCc2[nH]cnc2C1c1ccc2ccccc2n1 (stereo not drawn)
> 5 | CN(C)Cc1ccc2c(C(=O)N3CCc4[nH]cnc4C3c3cc4ccccc4nn3)cnn2c1 (stereo not drawn)
1 to 5 | O=C(Cc1cscn1)N1CCc2[nH]cnc2C1c1cn2ccccc2n1 (stereo not drawn)
> 5 | O=C(Cc1coc(C(F)F)n1)N1CCc2nc[nH]c2[C@H]1c1cn2ccccc2n1 (single isomer, unassigned)
1 to 5 | O=C(C1CC1)N1CCc2nc[nH]c2C1c1cn2ccccc2n1 (stereo not drawn)
> 5 | O=C(c1cnn(-c2ccccn2)c1Cl)N1CCc2[nH]cnc2C1c1ccc2ccccc2n1 (stereo not drawn)
> 5 | O=C(c1n[nH]c2ccccc12)N1CCc2[nH]cnc2C1c1ccc2ccccc2n1 (stereo not drawn)
> 5 | O=C(Cc1cnn2ccccc12)N1CCc2[nH]cnc2C1c1cn2ccccc2n1 (stereo not drawn)
> 5 | O=C(c1cncs1)N1CCc2[nH]cnc2C1c1cc2ccccc2cn1 (stereo not drawn)
1 to 5 | O=C(N1CCc2[nH]cnc2C1c1cn2ccccc2n1)C(F)(F)C1(O)CCC1 (stereo not drawn)
1 to 5 | O=C(c1nnc(CCNC2CC2)o1)N1CCc2[nH]cnc2C1c1ccc2ccccc2n1 (stereo not drawn)

SMILES | AC50 [µM]
C[C@H](O)c1nnc(C(=O)N2CCc3[nH]cnc3[C@H]2c2cc3ccccc3nn2)o1 (single isomer, unassigned) | 1 to 5

Same assay, conditions: A375 cells expressing human R408W PAH; 24 hrs compound incubation; 13C-Tyrosine by LC-MS; average where tested multiple times; read-out: AC50

AC50 [µM] | SMILES
0.5 to 1 | CC(C)(F)c1nnc(C(=O)N2CCc3[nH]cnc3[C@H]2c2ncc3ccccc3n2)o1 [Example 161, (S)-(5-(2-fluoropropan-2-yl)-1,3,4-oxadiazol-2-yl)(4-(quinazolin-2-yl)-6,7-dihydro-1H-imidazo[4,5-c]pyridin-5(4H)-yl)methanone]
1 to 5 | Cc1nc(C(C)(C)O)oc1C(=O)N1CCc2[nH]cnc2[C@H]1c1ccc2ccccc2n1 [Example 13]
< 0.5 | O=C(c1nnc(-c2ccc(OC(F)(F)F)cn2)o1)N1CCc2[nH]cnc2[C@H]1c1ncc2ccccc2n1 [Example 195, (S)-(4-(quinazolin-2-yl)-6,7-dihydro-1H-imidazo[4,5-c]pyridin-5(4H)-yl)(5-(5-(trifluoromethoxy)pyridin-2-yl)-1,3,4-oxadiazol-2-yl)methanone]
< 0.5 | O=C(c1nnc(-c2cnn(C3CCC3)c2)o1)N1CCc2[nH]cnc2[C@H]1c1ncc2ccccc2n1 [Example 187, (S)-(5-(1-cyclobutyl-1H-pyrazol-4-yl)-1,3,4-oxadiazol-2-yl)(4-(quinazolin-2-yl)-6,7-dihydro-1H-imidazo[4,5-c]pyridin-5(4H)-yl)methanone]
> 5 | CC(C)(F)c1nnc(C(=O)N2CCc3[nH]cnc3[C@@H]2c2ncc3ccccc3n2)o1 [Example 162, (R)-(5-(2-fluoropropan-2-yl)-1,3-oxadiazol-2-yl)(4-(quinazolin-2-yl)-6,7-dihydro-1H-imidazo[4,5-c]pyridin-5(4H)-yl)methanone]
0.5 to 1 | CC(C)(O)c1nnc(C(=O)N2CCc3[nH]cnc3[C@H]2c2cc3ccccc3cn2)o1 [Example 347, (R)-(5-(2-hydroxypropan-2-yl)-1,3,4-oxadiazol-2-yl)(4-(isoquinolin-3-yl)-6,7-dihydro-1H-imidazo[4,5-c]pyridin-5(4H)-yl)methanone]
1 to 5 | C[C@@H]1CN(C(=O)c2nnc(C(C)(C)C)o2)[C@@H](c2cc3ccccc3cn2)c2nc[nH]c21 [Example 429, (5-(tert-butyl)-1,3,4-oxadiazol-2-yl)((4S,7R)-4-(isoquinolin-3-yl)-7-methyl-6,7-dihydro-1H-imidazo[4,5-c]pyridin-5(4H)-yl)methanone]
> 5 | O=C(c1nnc(-c2ccncc2)o1)N1CCc2[nH]cnc2[C@@H]1c1ncc2ccccc2n1 [Example 180, (R)-(5-(pyridin-4-yl)-1,3,4-oxadiazol-2-yl)(4-(quinazolin-2-yl)-6,7-dihydro-1H-imidazo[4,5-c]pyridin-5(4H)-yl)methanone]
1 to 5 | O=C(c1cnc(-c2ccccn2)s1)N1CCc2[nH]cnc2C1c1ccc2ccccc2n1 (stereo in doubt) [Example 2, (S)-(2-(pyridin-2-yl)thiazol-5-yl)(4-(quinolin-2-yl)-6,7-dihydro-1H-imidazo[4,5-c]pyridin-5(4H)-yl)methanone]
> 5 | CN(C)Cc1ccc2c(C(=O)N3CCc4[nH]cnc4[C@@H]3c3ncc4ccccc4n3)cnn2c1 [Example 156, (R)-(6-((dimethylamino)methyl)pyrazolo[1,5-a]pyridin-3-yl)(4-(quinazolin-2-yl)-6,7-dihydro-1H-imidazo[4,5-c]pyridin-5(4H)-yl)methanone]
> 5 | O=C(c1nnc(-c2ccc(F)cn2)o1)N1CCc2[nH]cnc2C1c1ccc2ccccc2n1 (stereo in doubt) [Example 34, (S)-(5-(5-fluoropyridin-2-yl)-1,3,4-oxadiazol-2-yl)(4-(quinolin-2-yl)-6,7-dihydro-1H-imidazo[4,5-c]pyridin-5(4H)-yl)methanone]
> 5 | CC(C)(C)c1nnc(C(=O)N2CCc3[nH]cnc3[C@@H]2c2ncc3ccccc3n2)o1 [Example 202, (R)-(5-(tert-butyl)-1,3,4-oxadiazol-2-yl)(4-(quinazolin-2-yl)-6,7-dihydro-1H-imidazo[4,5-c]pyridin-5(4H)-yl)methanone]
> 5 | Cc1nc(-c2ccccn2)oc1C(=O)N1CCc2[nH]cnc2[C@@H]1c1cc2ccccc2nn1 [Example 207]
1 to 5 | O=C(c1ccnn1C(F)F)N1CCc2[nH]cnc2[C@@H]1c1cc2ccccc2nn1 [Example 214, (R)-(4-(cinnolin-3-yl)-6,7-dihydro-1H-imidazo[4,5-c]pyridin-5(4H)-yl)(1-(difluoromethyl)-1H-pyrazol-5-yl)methanone]
< 0.5 | O=C(c1nnc(N2CC(F)C2)o1)N1CCc2[nH]cnc2[C@H]1c1cc2ccccc2cn1 [Example 424, (R)-(5-(3-fluoroazetidin-1-yl)-1,3,4-oxadiazol-2-yl)(4-(isoquinolin-3-yl)-6,7-dihydro-1H-imidazo[4,5-c]pyridin-5(4H)-yl)methanone]
1 to 5 | O=C(C1CC1)N1CCc2[nH]cnc2[C@@H]1c1cc2ccccc2nn1 [Example 216, (R)-(4-(cinnolin-3-yl)-6,7-dihydro-1H-imidazo[4,5-c]pyridin-5(4H)-yl)(cyclopropyl)methanone]
< 0.5 | Fc1ccc(-c2nnc(N3CCc4[nH]cnc4[C@H]3c3cc4ccccc4cn3)o2)cc1 [Example 337, (R)-2-(4-fluorophenyl)-5-(4-(isoquinolin-3-yl)-6,7-dihydro-1H-imidazo[4,5-c]pyridin-5(4H)-yl)-1,3,4-oxadiazole]
1 to 5 | COc1ccc(-c2nnc(C(=O)N3CCc4[nH]cnc4[C@@H]3c3ncc4ccccc4n3)o2)nc1 [Example 182, (R)-(5-(5-methoxypyridin-2-yl)-1,3,4-oxadiazol-2-yl)(4-(quinazolin-2-yl)-6,7-dihydro-1H-imidazo[4,5-c]pyridin-5(4H)-yl)methanone]
< 0.5 | COc1ccc2c(C(=O)N3CCc4[nH]cnc4[C@H]3c3cc4ccccc4cn3)cnn2c1 [Example 460, (R)-(4-(isoquinolin-3-yl)-6,7-dihydro-1H-imidazo[4,5-c]pyridin-5(4H)-yl)(6-methoxypyrazolo[1,5-a]pyridin-3-yl)methanone]
1 to 5 | CC(C)(O)c1nc(C(F)F)c(C(=O)N2CCc3[nH]cnc3[C@@H]2c2cc3ccccc3nn2)o1 [Example 210, (R)-(4-(cinnolin-3-yl)-6,7-dihydro-1H-imidazo[4,5-c]pyridin-5(4H)-yl)(4-(difluoromethyl)-2-(2-hydroxypropan-2-yl)oxazol-5-yl)methanone]
< 0.5 | CC(C)(F)c1ncc(C(=O)N2CCc3[nH]cnc3C2c2ccc3ccccc3n2)o1 (stereo in doubt) [Example 17, (R)-(2-(2-fluoropropan-2-yl)oxazol-5-yl)(4-(quinolin-2-yl)-6,7-dihydro-1H-imidazo[4,5-c]pyridin-5(4H)-yl)methanone]
1 to 5 | O=C(c1cn[nH]c1Cl)N1CCc2[nH]cnc2C1c1ccc2ccccc2n1 (stereo in doubt) [Example 123, (S)-(5-chloro-1H-pyrazol-4-yl)(4-(quinolin-2-yl)-6,7-dihydro-1H-imidazo[4,5-c]pyridin-5(4H)-yl)methanone]
< 0.5 | O=C(c1nnc(-c2cnn(C(F)F)c2)o1)N1CCc2[nH]cnc2[C@H]1c1ncc2ccccc2n1 [Example 185, (S)-(5-(1-(difluoromethyl)-1H-pyrazol-4-yl)-1,3,4-oxadiazol-2-yl)(4-(quinazolin-2-yl)-6,7-dihydro-1H-imidazo[4,5-c]pyridin-5(4H)-yl)methanone]
